Patent US8987193B2, “Nisin derivatives and the use thereof” (University College Cork—National University of Ireland, Cork, priority 2008, dated 2015)
Ends that are not written are not given here.

Key:
L. plantarum CBC6 = assay: Deferred antagonism assay; assay type: cell-based, Lactobacillus plantarum; set-up: key: + = Enhanced bioactivity relative to control; − = Bioactivity equal to or less than control; NA = no activity evident; conditions: producing strain
How it was run: (§1)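 Well-diffusion testing of purified nisin variants in 0.005% acetic acid, serially diluted, 37° C overnight; AU/ml = reciprocal of last dilution with definite zone × 20. Deferred antagonism: overnight GM17 colonies overlaid with seeded soft agar (0.75%); zone = clearing diameter minus 5 mm.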

L. lactis CBC8 = assay: Deferred antagonism assay; assay type: cell-based; set-up: key: + = Enhanced bioactivity relative to control; − = Bioactivity equal to or less than control; NA = no activity evident; conditions: producing strain
How it was run: as §1

S. aureus CBC4 = assay: Deferred antagonism assay; assay type: cell-based; set-up: key: + = Enhanced bioactivity relative to control; − = Bioactivity equal to or less than control; NA = no activity evident; conditions: producing strain
How it was run: as §1

L. lactis CBC7 = assay: Deferred antagonism assay; assay type: cell-based; set-up: key: + = Enhanced bioactivity relative to control; − = Bioactivity equal to or less than control; NA = no activity evident; conditions: producing strain
How it was run: as §1

Staph. aureus DPC5245 = assay: Deferred antagonism assay; assay type: cell-based; conditions: producing strain; diameter of zone minus 5 mm; average of duplicates; St. aureus DPC5245
Description: (§2) Deferred antagonism assays were performed by replicating strains on GM17 or GM17 x-gal agar plates and allowing them to grow overnight before overlaying with either GM17/BHI/TS/MH agar (0.75% w/v agar) seeded with the appropriate indicator strain. Zone size was calculated as the diameter of the zone of clearing minus the diameter of bacterial growth (5 mm) For higher throughput screening of N20PXX, XM21VX, XXK22T and XXX banks deferred antagonism assays were performed by replicating strains using a 96 pin replicator (Boekel) or spotting 5 μl of a fresh overnight culture on GM17 agar plates and allowing them to grow overnight. […] Additional sets of indicators were employed to further assess/reassess the bioactivity of a number of strains. […] For well-diffusion assays molten agar was cooled to 48° C. and seeded with the appropriate indicator strain. The inoculated medium was rapidly transferred into sterile Petri plates in 50 ml volumes, allowed to solidify and dried. Wells (4.6 mm in diameter) were then made in the seeded plates. Purified nisin and mutant nisins were resuspended in 0.005% acetic acid, serially diluted, 50 μl volumes were dispensed into the aforementioned wells and the plates incubated at 37° C. overnight. Bioactivity was expressed as arbitrary units/ml (AU/ml) and calculated as the reciprocal of the highest dilution that gave a definite zone multiplied by the conversion factor (i.e. 20 when 50 μl was used) (Ryan et al., 1996).
(§3) As a consequence of the enhanced activities of K22T and K22S, a more in-depth investigation of this region was carried out. Saturation mutagenesis was undertaken to create a bank of nisin A hinge derivatives containing the vast majority of possible amino acid substitutions for each position. Although pPTPL was used successfully for random mutagenesis, its relatively large size of approx 10.5 kb was considered unsuitable for the complete plasmid PCR amplification approach utilized for saturation mutagenesis. A smaller (approx 6 kb) E. coli-L. lactis shuttle vector pCI372 was considered to be potentially more useful. Its suitability with respect to the in trans expression of nisA was confirmed by the ability of pDFO5 to restore the nisin positive phenotype. Saturation mutagenesis was performed on each codon using pDF05 and oligonucleotides (Table 5) that replace the specific codon with a NNK triplet, potentially encoding all 20 standard amino acids. Following complete plasmid amplification and introduction into the intermediate Top10 host, sequence analysis of a pooled bank of pDF05 derivatives confirmed randomization. Introduction of these variants into L. lactis NZ9800 allowed the expression of mutant nisin A peptides for further analysis. […] 46 residue conversions were isolated. All strains, regardless of bioactivity, were assessed with a view to comprehensively assessing the consequences of each individual hinge alteration.
(§4) Values are an average of duplicate experiments and represent zone size (diameter of zone minus diameter of bacterial growth (i.e. 5 mm) relative to that of the NZ9800 pCI372nisA control. X=Mutants not identified.

[1] = tested on: Strep. agalactiae ATCC13813; assay: Deferred antagonism assay; assay type: cell-based; conditions: producing strain, diameter of zone minus 5 mm, average of duplicates
Description: as §2, §3, §4

[2] = tested on: Staph. aureus ST528 (MRSA); assay: Deferred antagonism assay; assay type: cell-based; conditions: producing strain, diameter of zone minus diameter of bacterial growth (5 mm), average of duplicates
Description: as §2, §3, §4

C. sporogenes CBC5 = assay: Deferred antagonism assay; assay type: cell-based, Clostridium sporogenes; set-up: key: + = Enhanced bioactivity relative to control; − = Bioactivity equal to or less than control; NA = no activity evident; conditions: producing strain
L. monocytogenes CBC1 = assay: Deferred antagonism assay; assay type: cell-based, Listeria monocytogenes; set-up: key: + = Enhanced bioactivity relative to control; − = Bioactivity equal to or less than control; NA = no activity evident; conditions: producing strain; L. mono CBC1
How it was run: as §1

L. monocytogenes CBC2 = assay: Deferred antagonism assay; assay type: cell-based, Listeria monocytogenes; set-up: key: + = Enhanced bioactivity relative to control; − = Bioactivity equal to or less than control; NA = no activity evident; conditions: producing strain; L. mono CBC2
How it was run: as §1

L. monocytogenes CBC3 = assay: Deferred antagonism assay; assay type: cell-based, Listeria monocytogenes; set-up: key: + = Enhanced bioactivity relative to control; − = Bioactivity equal to or less than control; NA = no activity evident; conditions: producing strain; L. mono CBC3
How it was run: as §1

indicator strains = assay: Deferred antagonism assays, various indicator strains (summary); assay type: cell-based
How it was run: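 Producer strains were replicated on GM17 or GM17 x-gal agar, grown overnight, then overlaid with GM17, BHI, TS or MH soft agar (0.75% w/v) seeded with the indicator strain. Zone size was taken as the clearing diameter minus the diameter of bacterial growth (5 mm).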

Row | Substance | Bioactivity relative to control (L. plantarum CBC6) | Bioactivity relative to control (L. lactis CBC8) | Bioactivity relative to control (S. aureus CBC4) | Bioactivity relative to control (L. lactis CBC7) | zone size relative to that of the NZ9800 pCI372nisA control (Staph. aureus DPC5245) [%] | zone size relative to that of the NZ9800 pCI372nisA control [1] [%] | zone size relative to that of the NZ9800 pCI372nisA control [2] [%] | Bioactivity relative to control (C. sporogenes CBC5) | Bioactivity relative to control (L. monocytogenes CBC1) | Bioactivity relative to control (L. monocytogenes CBC2) | Bioactivity relative to control (L. monocytogenes CBC3) | bioactivity of the producing strain, in words (indicator strains; in general / against the strains tested) | Strain(s) against which the derivative (producing strain) displays enhanced bioactivity (indicator strains; relative to nisin A-producing control, value = strains listed)
1 | K22F: nisin A derivative, hinge substitution K22F (ITSISLCTPGCKTGALMGCNMFTATCHCSIHVSK; cysteine pairing not given here; also: lantibiotic nisin-A; UniProt P13068 24-57, looked up, variant K22F) | − | − | − | − | 56 | 57 | 29 | − | − | − | − |  | 
2 | K22H: nisin A derivative, hinge substitution K22H (ITSISLCTPGCKTGALMGCNMHTATCHCSIHVSK; cysteine pairing not given here; also: lantibiotic nisin-A; UniProt P13068 24-57, looked up, variant K22H) | − | − | − | − | 97 | 104 | 97 | − | − | − | − |  | 
3 | M21F: nisin A derivative, hinge substitution M21F (ITSISLCTPGCKTGALMGCNFKTATCHCSIHVSK; cysteine pairing not given here; also: lantibiotic nisin-A; UniProt P13068 24-57, looked up, variant M21F) | − | − | − | − | 21.5 | 0 | 20 | − | − | − | − |  | 
4 | M21P: nisin A derivative, hinge substitution M21P (ITSISLCTPGCKTGALMGCNPKTATCHCSIHVSK; cysteine pairing not given here; also: lantibiotic nisin-A; UniProt P13068 24-57, looked up, variant M21P) | − | − | − | − | 32 | 0 | 40 | − | − | − | − |  | 
5 | M21W: nisin A derivative, hinge substitution M21W (ITSISLCTPGCKTGALMGCNWKTATCHCSIHVSK; cysteine pairing not given here; also: lantibiotic nisin-A; UniProt P13068 24-57, looked up, variant M21W) | − | − | − | − | 14 | 0 | 12 | − | − | − | − |  | 
6 | N20I: nisin A derivative, hinge substitution N20I (ITSISLCTPGCKTGALMGCIMKTATCHCSIHVSK; cysteine pairing not given here; also: lantibiotic nisin-A; UniProt P13068 24-57, looked up, variant N20I) | − | − | − | − | 49 | 61 |  | − | − | − | − | retention of relatively high levels of bioactivity | 
7 | N20W: nisin A derivative, hinge substitution N20W (ITSISLCTPGCKTGALMGCWMKTATCHCSIHVSK; cysteine pairing not given here; also: lantibiotic nisin-A; UniProt P13068 24-57, looked up, variant N20W) | − | − | − | − |  | 0 | 5.4 | − | − | − | − |  | 
8 | NisinA N20T (ITSISLCTPGCKTGALMGCTMKTATCHCSIHVSK; not fully specified; also: lantibiotic nisin: dehydrated residues and thioether rings not placed; UniProt P13068 24-57, looked up, variant N20T) [nisin A derivative, hinge substitution N20T] | − | − | − | − | 90 |  | 79 | + | − | − | − |  | C. sporogenes CBC5
